Data reported in patent US20260232706A1, “1H-PYRAZOLE ANALOGUES AND METHODS AND USES THEREOF” (University of Manitoba, priority 2022, published 2026).

Legend:
[1] = system: neuroblastoma-spinal cord hybrid NSC-34 cells; assay: Neuroprotective effect/cell viability analysis in NSC-34 cells against H2O2 induced oxidative stress; format: cell-based; conditions: prophylactic treatment, 250 μM H2O2, FIG. 7A
[2] = system: neuroblastoma-spinal cord hybrid NSC-34 cells; assay: as above; format: cell-based; conditions: 250 μM H2O2
Method: Methods: The in vitro properties and antioxidant abilities of the synthesized B^5-EDR analogues were assessed in cell-based assays. […] The methodology employed for each of these assays is detailed below.
(iii) Methodology for neuroprotective effect/cell viability analysis in (NSC-34) cells (FIGS. 8A-B): Briefly, NSC-34 cells with about 20 k cells per well in 96 well plates were cultured in a complete medium consisting of high glucose Dulbecco's modified eagle medium (DMEM) (Thermo Fisher Scientific) supplemented with about 10% US-origin fetal bovine serum (Thermo Fisher Scientific), GlutaMAX-1, about 200 mM (100×) (Thermo Fisher Scientific), about 1% 100 mM Sodium pyruvate and about 1% 10,000 U/mL penicillin-streptomycin solution (Thermo Fisher Scientific) for about 20 h to reach confluency of about 70%—about 75%. All the cells were cultured in an incubator with about 5% of CO2 at about 37° C. About 20 kcells/100 μl/well were seeded in 96 well plates for about 20 h in triplicates. […] After about 1 h, the cells were treated with 250 μM of H2O2 for about 2 h. After a total period of about 3 h, about 10 μl of WST-8 reagent was added in each well and the absorbance readings were recorded after about 2.5 h at about 450 nm. All the experiments were repeated at least three times and measurements were run in triplicates.

Structure (SMILES): Cc1cc(B2OC(C)(C)C(C)(C)O2)n(-c2ccccc2)n1 [NS-1-2, 3-methyl-5-(4,4,5,5-tetramethyl-1,3,2-dioxaborolan-2-yl)-1-phenyl1H-pyrazole]
- protection from loss of cell viability induced by H2O2 [1]: protected NSC-34 cells from loss of cell viability
- neuroprotection in scavenging neurotoxic effects of H2O2 compared to EDR ([2]; 1 μM): better neuroprotection
- neuroprotection in scavenging neurotoxic effects of H2O2 compared to EDR ([2]; 25 μM): better neuroprotection
- viability compared to EDR ([2]; 50 μM dose): almost equal viability
